Test in all cases: growth of human tumour cells (NCI), 48 h
Assay [1] concerns HS 578T breast.
Assay [2] has as its system OVCAR-5 ovarian.
Assay [3] has as its system SF-539 CNS.
The subject of assay [4] is HOP-62 NSCLC.
Assay [5] relates to MDA-MB-231 breast.
For assay [6], the system named is SNB-19 CNS.
Assay [7] has as its system SK-MEL-5 melanoma.
The test system of assay [8] is NCI-H226 lung.
For assay [9], the system named is UACC-62 melanoma.
Assay [10] concerns HCC-2998 colon.

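96-well plates; 48 h exposure; 5 concentrations. Endpoints by linear interpolation between flanking doses. Not reached: highest tested concentration assigned. The concentration for full growth arrest is given as TGI.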

As for `C=CCN(c1cc(OC)c2[nH]cc(C)c2c1[N+](=O)[O-])S(C)(=O)=O`, the TGI in assay [1], in [2], in [3], in assay [4], in [5] and in assay [6] was over 100 µM each time. In addition, the TGI in assay [7], in [8], in assay [9] and in [10] was over 100 µM in each case.
As for `CCOC(=O)Cn1c(=O)c2cc(-c3ccccc3)cc3c(Cl)nc4c(OC)c(OC)cc1c4c32`, the TGI was over 27.7 µM in [1]; over 100 µM in [2]; over 100 µM in assay [3]; over 100 µM in [4]; over 100 µM in [5]; 55 µM in [6]. The TGI in assay [7] is over 59.9 µM; in assay [8] it was over 100 µM; in assay [9], 30.4 µM; in assay [10], 34.5 µM.
On to `Cc1ccc(C(=O)Nc2ccc(S(=O)(=O)O)c3cc(S(=O)(=O)O)cc(S(=O)(=O)O)c23)cc1NC(=O)c1cccc(NC(=O)Nc2cccc(C(=O)Nc3cc(C(=O)Nc4ccc(S(=O)(=O)O)c5cc(S(=O)(=O)O)cc(S(=O)(=O)O)c45)ccc3C)c2)c1` (tested in a mixture with another compound), for which the TGI in assay [1], in assay [2], in assay [3], in assay [5], in assay [6] and in assay [7] was over 50 µM each time. Also, the TGI in assay [8], in assay [9] and in assay [10] was over 50 µM throughout.
With `CC(=O)NC(Cc1ccc(OP(=O)(OCc2ccc([N+](=O)[O-])o2)N(C)CCCCCl)cc1)C(=O)NC(C)c1ccc(OCC2CCCCC2)c(C(N)=O)c1` (configuration not stated), the TGI in [1] was 4.65 µM; in [2], 21.2 µM; in assay [3], 4.35 µM; in [4], 23.7 µM; in [5] it was 4.79 µM; in [6], 14.9 µM. Besides, the TGI was determined as 3.08 µM in assay [7], 21.2 µM in assay [8], 5.34 µM in assay [9] and 3.42 µM in assay [10].
In the case of `CC(Cc1ccccc1)NC1=NCCO1` (configuration not stated), the TGI in assay [1] was over 100 µM; in assay [2] it was over 100 µM; in assay [3], 30.3 µM; in assay [4], over 100 µM; in [5], 30.1 µM; in [6], over 100 µM. Besides, the TGI in assay [7] was over 100 µM; in assay [8] it was over 100 µM; in assay [9], over 100 µM; in [10] it was 71 µM.
On to `Cc1nnc(-n2c(O)cc(=O)n(-c3ccccc3)c2=S)nc1/C=C/c1ccc(N(C)C)cc1`, for which the TGI in assay [1] was 56.3 µM; in [2] it was over 75.3 µM; in assay [4], over 100 µM; in [5] it was over 55.7 µM; in assay [6], over 63 µM; in [7], 21.9 µM. In addition, the TGI in assay [8] is over 100 µM; in [9] it was over 46.8 µM; in assay [10], 22.7 µM.
As to `COc1ccccc1NC(=O)O/N=C(/Cl)C(C)C`, the TGI in assay [1] was 67.9 µM; in assay [2], 35.8 µM; in assay [3] it was 35.9 µM; in [4], 17.1 µM; in assay [5], 18.3 µM; in [6], over 56.4 µM. For the same compound, the TGI in assay [7] was 24.1 µM; in assay [8] it was 41.5 µM; in assay [9] it was 37.4 µM; in assay [10], 30.1 µM.
Regarding `c1ccc(N=C2SC3=NCCN3C2=Nc2ccccc2)cc1`, the TGI in [1] is over 100 µM; in assay [2] it was 34.9 µM; in assay [4], 52.9 µM; in [5], 60.5 µM; in assay [6], 32.5 µM; in assay [7], 28.9 µM. Further, the figures for the TGI in [8], in assay [9] and in [10] were 36.3 µM, 22.7 µM and 52.4 µM, respectively.
As for `O=c1cc(N=Nc2ccc(Cl)cc2)[nH]c(=O)[nH]1`, the TGI in assay [1] worked out at 12.7 µM; in assay [2], 32.2 µM; in assay [3] it was 10.2 µM; in assay [4] it was 30.1 µM; in [5], 8.28 µM; in [6], 25.2 µM. Also, the TGI was determined as 21.4 µM in [7], 20.4 µM in assay [8], 7.11 µM in [9] and 9.1 µM in assay [10].
For the compound `CC(NC(=O)C(N)CC(=O)O)NC(=O)N(C)C(C)(C)C` (configuration not stated), the TGI in assay [1], in assay [2], in assay [3], in assay [4], in assay [5] and in assay [6] was over 100 µM each time. Further, the TGI in assay [7], in [8], in assay [9] and in [10] was over 100 µM each time.
Regarding `CC(C)C1CC[C@H](C)C[C@@H]1OC(=O)C(C(=O)O[C@H]1C[C@@H](C)CCC1C(C)C)C(O)[C@@H]1OC(C)(C)O[C@H]1C1COC(C)(C)O1` (some centres not stated), the TGI in assay [1] was 36.5 µM; in assay [2], 31.9 µM; in [3], 49.5 µM; in [4], 37.5 µM; in [5] it was 36.2 µM; in assay [6], 29.8 µM. The TGI is 29.2 µM in assay [7], 41.2 µM in assay [8], 40.5 µM in assay [9] and 26.7 µM in assay [10].
`O=C1c2ccccc2-c2nc(/C=C/c3ccccc3)cc3c2c1nc1ccccc13`: the TGI in assay [1] is 62.6 µM; in assay [2], over 100 µM; in assay [3], over 100 µM; in assay [4], 76.3 µM; in assay [5], 74 µM; in [6], over 100 µM. Also, the TGI was 8.8 µM in [7], over 100 µM in [8], 25.7 µM in [9] and 64.6 µM in [10].
For `C=CCCCCCCCCCOC1C=CC(OC(C)=O)C(COC(C)=O)O1` (configuration not stated), the TGI in [1] was 63 µM; in assay [2] it was over 100 µM; in assay [3], over 100 µM; in assay [4] it was over 100 µM; in assay [5], over 100 µM; in assay [6], over 100 µM. Besides, the TGI in assay [7], in assay [8], in assay [9] and in assay [10] was over 100 µM each time.
`C(=C\c1cc(-c2ccc3ccccc3n2)nc2ccc3ccccc3c12)/c1ccc2ccccc2n1`: the TGI in assay [1], in [2], in assay [3], in assay [4], in assay [5] and in assay [6] was over 100 µM in each case. The TGI in assay [7], in assay [8], in [9] and in assay [10] was over 100 µM throughout.
With `Nn1c(Cc2ccccc2)n[nH]c1=O`, the TGI in assay [1], in assay [2], in [3], in [4], in assay [5] and in [6] was over 100 µM throughout. Also, the TGI in assay [7], in assay [8], in assay [9] and in assay [10] was over 100 µM each time.
Take `O=[N+]([O-])c1c2nc3n(c2cc2c1nc1n2CCC1)CCC3`: the TGI in assay [1], in [2], in [3], in assay [4], in [5] and in assay [6] was over 100 µM in each case. The TGI in assay [7], in assay [8], in assay [9] and in [10] was over 100 µM throughout.
For `Clc1c(C(Cl)(Cl)Cl)nsc1N1CCCCC1`, the TGI is over 100 µM in assay [1]; over 100 µM in assay [2]; 68.5 µM in assay [3]; 73.8 µM in assay [4]; 77.5 µM in assay [5]; 69.7 µM in assay [6]. For the same compound, the TGI in [7] is 29.6 µM; in [8] it was 36.2 µM; in assay [9] it was over 100 µM; in assay [10] it was 47.9 µM.
On to `NS(=O)(=O)c1nnc(NS(=O)(=O)c2ccccc2C(=O)O)s1`, for which the TGI in assay [1], in assay [2], in assay [4], in assay [5], in assay [6] and in assay [7] was over 100 µM throughout. In addition, the TGI in assay [8], in [9] and in assay [10] was over 100 µM each time.
`NC(=O)CC(N=C1C(=O)OC(C(O)CO)C1=NC(CC(N)=O)C(=O)O)C(=O)O` (configuration not stated): the TGI in assay [1], in [3], in assay [4], in assay [5], in [6] and in assay [7] was over 100 µM each time. Also, the TGI in assay [8], in assay [9] and in [10] was over 100 µM each time.
With `CC1CCc2sc3[nH]c(=S)n(-c4ccccc4)c(=O)c3c2C1` (configuration not stated), the TGI in [1], in [2], in assay [4], in [5], in assay [6] and in [7] was over 100 µM each time. The TGI is over 100 µM in assay [8], over 100 µM in assay [9] and 67.8 µM in assay [10].
For the compound `C=C(C)[C@@H]1CCC2=C[C@H](CC(C)=CC3=CC(C)=C(O3)[C@@H]1OC)OC2=O`, the TGI in assay [1] was over 100 µM; in assay [2], over 100 µM; in assay [3], over 100 µM; in [5], 87.3 µM; in [6], over 100 µM; in [7], over 100 µM. The TGI in assay [8], in assay [9] and in [10] was over 100 µM throughout.
Turning to `NC(=O)c1nnsc1NC=O`, the TGI in assay [1], in [2], in assay [4], in assay [5], in assay [6] and in assay [7] was over 100 µM throughout. Further, the TGI in assay [8], in [9] and in [10] was over 100 µM throughout.
For the compound `COc1cc2c(cc1OCCCC(=O)Nc1cc(C(=O)NCCCN(C)C)n(C)n1)N=CC1CCCN1C2=O` (configuration not stated), the TGI in assay [1] is over 100 µM; in assay [2] it was over 26.9 µM; in assay [3], 22.1 µM; in assay [4], over 43.7 µM; in assay [5], over 39.9 µM; in [6] it was over 37.4 µM. Further, the TGI in assay [7] was 14 µM; in assay [8] it was over 38.2 µM; in [10] it was 28.3 µM.
For the compound `CC(=O)OCC1=C(C)C[C@H]([C@@H](COC(C)=O)C2CCC3C4C[C@H]5O[C@]56CC=CC(=O)[C@]6(C)C4CC[C@@]32C)OC1=O` (some centres not stated), the TGI was determined as 17.8 µM in assay [1]; 3.13 µM in assay [2]; 1.91 µM in [4]; 1.91 µM in assay [5]; 7.72 µM in assay [6]; 0.875 µM in [7]. The TGI in assay [8] is 1.74 µM; in [9] it was 0.976 µM; in [10], 1.2 µM.
`CC(=O)O[C@H]1C[C@H]2C(=S)Nc3ccccc3C(=S)N2C1`: the TGI in assay [1], in assay [2], in assay [4], in assay [5], in assay [6] and in assay [7] was over 100 µM throughout. Further, the TGI in assay [8], in assay [9] and in assay [10] was over 100 µM each time.
As for `CSc1nc2c(=O)n(-c3ccccc3)c(=S)n(-c3ccccc3)c2s1`, the TGI in [1] is 94.7 µM; in [2], over 100 µM; in [3], over 100 µM; in assay [4], over 100 µM; in assay [5], over 100 µM; in assay [6] it was 64.7 µM. Also, the figures for the TGI in assay [7], in assay [8] and in assay [10] were over 100 µM, 86.3 µM and over 100 µM, respectively.
In the case of `c1ccc2nc(CCC3CCCCN3)ccc2c1` (configuration not stated), the TGI in assay [1], in assay [2], in assay [4], in assay [5], in [6] and in [7] was over 100 µM throughout. The TGI in assay [8], in [9] and in assay [10] was over 100 µM throughout.

Source of the values: PubChem BioAssay (NCI).
